Reference: US20260158056A1, “USE OF LOW MOLECULAR WEIGHT HYALURONIC ACID FOR THE TREATMENT OF LUNG MUCOSAL INFLAMMATION” (INSTITUT NATIONAL DE LA SANTÉ ET DE LA RECHERCHE MÉDICALE, priority 2021, published 2026)

Columns and labels:
[1] = system: IL-8 secreted by non-CF human airway epithelial cells; assay: IL-8 ELISA, non-CF airway epithelial cells cultured at the air-liquid interface (ALI); format: cell-based; conditions: FIG. 11, 14; 1 mg/mL from ALI creation, ALI day 15, vs control condition; n=1 non-CF patient
Description: FIG. 11: Measurement by ELISA assay of the pro-inflammatory chemokine IL-8 secreted by non-CF human airway epithelial cells cultured at the air-liquid interface (ALI). Airway epithelial cells were seeded in bi-compartmental chambers and cultured in liquid-liquid condition until confluence was reached. At confluence, culture medium from the upper chamber was removed to create an air-liquid interface (ALI) that will favor epithelial cell differentiation. From the ALI creation, the different treatments (15-45 kDa sodium-hyaluronic acid (HA-Na 15-45 kDa) (ARD—Pomacle—France—as prepared according to WO2004050187), 15-30 kDa sodium-hyaluronic acid (HA-Na 15-30 kDa) (Sigma Aldrich), or 30-50 kDa sodium-hyaluronic acid (HA-Na 30-50 kDa) (Sigma Aldrich)) were added at 1 mg/mL to the culture medium in the basal chamber. The culture medium was renewed three times a week. At ALI day 15, the culture medium was replaced by fresh medium without any treatment. After a 4 h-period, this culture medium was collected and the IL-8 content was determined by ELISA assay. n=1 non-CF patient. p<0.001 (***); p<0.01 (**); p<0.05 (*). ns: non-significant.
FIG. 14: Measurement by ELISA assay of the pro-inflammatory chemokine IL-8 secreted by non-CF human airway epithelial cells cultured at the air-liquid interface (ALI). Airway epithelial cells were seeded in bi-compartmental chambers and cultured in liquid-liquid condition until confluence was reached. At confluence, culture medium from the upper chamber was removed to create an air-liquid interface (ALI) that will favor epithelial cell differentiation. From the ALI creation, the different treatments (15-45 kDa sodium-hyaluronic acid (HA-Na 15-45 kDa) (ARD—Pomacle—France—as prepared according to WO2004050187), 15-45 kDa calcium-hyaluronic acid (HA-Ca 15-45 kDa; ARD) or 15-45 kDa potassium-hyaluronic acid (HA-K 15-45 kDa; ARD) were added at 1 mg/mL to the culture medium in the basal chamber. The culture medium was renewed three times a week. At ALI day 15, the culture medium was replaced by fresh medium without any treatment. After a for 4 h-period, this culture medium was collected and the IL-8 content was determined by ELISA assay. n=1 non-CF patient. p<0.001 (***); p<0.01 (**); p<0.05 (*). ns: non-significant.

[2] = system: mucin MUC-5B secreted by F508del/F508del CF human airway epithelial cells; assay: MUC-5B ELISA, CF airway epithelial cells cultured at the air-liquid interface (ALI); format: cell-based
Description: FIG. 8: Measurement by ELISA assay of the mucin MUC-5B secreted by F508del/F508del CF human airway epithelial cells cultured at the air-liquid interface (ALI). Airway epithelial cells were seeded in bi-compartmental chambers and cultured in liquid-liquid condition until confluence was reached. At confluence, culture medium from the upper chamber was removed to create an air-liquid interface (ALI) that will favor epithelial cell differentiation. From the ALI creation, the different treatments (15-45 kDa sodium-hyaluronic acid (HA-Na 15-45 kDa) (ARD—Pomacle—France—as prepared according to WO2004050187), 15-30 kDa sodium-hyaluronic acid (HA-Na 15-30 kDa) (Sigma Aldrich), or 30-50 kDa sodium-hyaluronic acid (HA-Na 30-50 kDa) (Sigma Aldrich)) were added at 1 mg/mL to the culture medium in the basal chamber. The culture medium was renewed three times a week. At ALI day 15 and ALI Day 25, the culture in the upper chamber was rinsed with PBS then, a small volume of fresh medium without any treatment was placed at the contact of the apical part of the epithelium. After a 4 h-period, this apical culture medium was collected and the MUC-5B content was determined by ELISA assay. n=3 different F508del/F508del CF patients. p<0.001 (***); p<0.01 (**); p<0.05 (*). ns: non-significant.
FIG. 9: Measurement by ELISA assay of the mucin MUC-5B secreted by F508del/F508del CF human airway epithelial cells cultured at the air-liquid interface (ALI). Airway epithelial cells were seeded in bi-compartmental chambers and cultured in liquid-liquid condition until confluence was reached. At confluence, culture medium from the upper chamber was removed to create an air-liquid interface (ALI) that will favor epithelial cell differentiation. From the ALI creation, the different treatments (15-45 kDa sodium-hyaluronic acid (HA-Na 15-45 kDa) (ARD—Pomacle—France—as prepared according to WO2004050187), 15-45 kDa calcium-hyaluronic acid (HA-Ca 15-45 kDa; ARD), or 15-45 kDa potassium-hyaluronic acid (HA-K 15-45 kDa; ARD) were added at 1 mg/mL to the culture medium in the basal chamber. The culture medium was renewed three times a week. At ALI day 15 and ALI Day 25, the culture in the upper chamber was rinsed with PBS then, a small volume of fresh medium without any treatment was placed at the contact of the apical part of the epithelium. After a 4 h-period, this apical culture medium was collected and the MUC-5B content was determined by ELISA assay. n=3 different F508del/F508del CF patients. p<0.001 (***); p<0.01 (**); p<0.05 (*). ns: non-significant.
FIG. 10: Measurement by ELISA assay of the mucin MUC-5B secreted by F508del/F508del CF human airway epithelial cells cultured at the air-liquid interface (ALI). Airway epithelial cells were seeded in bi-compartmental chambers and cultured in liquid-liquid condition until confluence was reached. At confluence, culture medium from the upper chamber was removed to create an air-liquid interface (ALI) that will favor epithelial cell differentiation. From the ALI creation, 15-45 kDa sodium-hyaluronic acid (HA-Na 15-45 kDa) (ARD—Pomacle—France—as prepared according to WO2004050187) was added at 2 mg/mL, 1 mg/mL or 0.5 mg/mL to the culture medium in the basal chamber. The culture medium was renewed three times a week. At ALI day 15 and ALI Day 25, the culture in the upper chamber was rinsed with PBS then, a small volume of fresh medium without any treatment was placed at the contact of the apical part of the epithelium. After a 4 h-period, this apical culture medium was collected and the MUC-5B content was determined by ELISA assay. n=3 different F508del/F508del CF patients. p<0.001 (***); p<0.01 (**); p<0.05 (*). ns: non-significant.

[3] = 1 mg/mL, ALI day 15, vs control condition, n=3 CF patients
[4] = 1 mg/mL, ALI day 25, vs control condition, n=3 CF patients

| Substance | decrease in IL-8 secretion [1] [%] | decrease in MUC-5B secretion [2, 3] [%] | decrease in MUC-5B secretion [2, 4] [%] | decrease in MUC-5B secretion ([2]; FIG. 10, 0.5 mg/mL, ALI day 15 and ALI day 25) | decrease in MUC-5B secretion ([2]; FIG. 10, 2 mg/mL, ALI day 15) [%] | decrease in MUC-5B secretion ([2]; FIG. 10, 2 mg/mL, ALI day 25) [%] |
| --- | --- | --- | --- | --- | --- | --- |
| 15-30 kDa sodium-hyaluronic acid [HA-Na 15-30 kDa] | 60.6 | 14.1 | 17.3 |  |  |  |
| 15-45 kDa calcium-hyaluronic acid [HA-Ca 15-45 kDa] | 70.5 | 85.5 | 58.8 |  |  |  |
| 15-45 kDa potassium-hyaluronic acid [HA-K 15-45 kDa] | 57.9 | 34.7 |  |  |  |  |
| 15-45 kDa sodium-hyaluronic acid [HA-Na 15-45 kDa] | 69.7 | 37.3 | 33.2 | does not have any effect | 97.9 | 81.2 |
| 30-50 kDa sodium-hyaluronic acid [HA-Na 30-50 kDa] | 66.6 | 68.7 | 67.1 |  |  |  |
